This note sets out measurements from PMC8682738, “Constrained peptides mimic a viral suppressor of RNA silencing” (Nucleic Acids Research, 2021).

Molecules are shown by their SMILES. Positions of bridges follow the written chain, without caps; N, C: chain ends. Non-standard residues stand in square brackets, D forms with d. Residues, ends and D or L forms follow the SMILES beside them. *: point of attachment. FITC = O=C1OC2(c3ccc(O)cc3Oc3cc(O)ccc32)c2ccc(NC(=S)*)cc21; R8 = C=CCCCCCC[C@@](C)(N)C(=O)O; S5 = C=CCCC[C@](C)(N)C(=O)O; AEEA = NCCOCCOCC(=O)O

One data set deals with proteinase K (Parengyodontium album, UniProt P06873). Kind of data set: Protease stability assay. Type of data set: in vitro ADME. Conditions: proteinase K 10 μg·ml^−1, fluorescein-labeled peptide 50 μM, 10 mM Tris pH 8.0, 150 mM NaCl, room temperature, HPLC absorbance 210 nm, exponential decay fit. As for the experimental part: Protease stability assays were performed in analogy to a previously published protocol ([47]). Stocks of fluorescein-labeled peptides were prepared to a concentration of 55.5 μM in assay buffer (10 mM Tris, pH 8.0, 150 mM NaCl) and separately stocks of proteinase K also in assay buffer (c = 100 μg·ml^−1). To begin each experiment, peptide and proteinase K stocks were mixed (final concentrations: c = 10 μg·ml^−1 proteinase K, c = 50 μM fluorescein-labeled peptide; final volume = 500 μl) and incubated at room temperature. At each time point, 50 μl of the reaction mixture was quenched by adding 100 μl of TFA/ACN/H2O (v/v/v, 1:49:49) and subsequently incubated for 2 min on ice. Following centrifugation (15 min, 13200 rpm, 4°C), samples (45 μl) were monitored by analytical HPLC using a linear gradient of 10–60% HPLC solvent B over 20 min. The amount of remaining peptide was quantified via absorbance at λ = 210 nm (intact peptide (%)) and plotted against time (t) (h). Half-life (t1/2) was calculated by fitting the data to an exponential decay using the software Prism 5.0 (GraphPad).
Sequence of proteinase K (P06873 106-384): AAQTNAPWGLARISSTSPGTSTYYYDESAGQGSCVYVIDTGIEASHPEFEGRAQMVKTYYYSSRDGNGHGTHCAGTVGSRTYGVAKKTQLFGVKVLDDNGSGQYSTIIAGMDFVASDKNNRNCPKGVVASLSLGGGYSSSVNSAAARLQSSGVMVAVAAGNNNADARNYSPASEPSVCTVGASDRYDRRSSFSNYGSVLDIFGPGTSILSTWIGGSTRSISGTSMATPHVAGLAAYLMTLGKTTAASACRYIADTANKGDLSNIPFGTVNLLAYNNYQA

A short description of data set [1]: CD spectroscopy, secondary structure content. The conditions noted are these: fluorescein-labeled peptide 75 μM, 10 mM sodium phosphate pH 7.4, CDNN/PEPFIT; for Helix (α-helicity): unbound. Type of data set: physicochemical. As to the method:
Spectra of fluorescein-labeled peptides were recorded with a J-715 circular dichroism spectrometer (Jasco) using a stoppered quartz cuvette (1 mm; Hellma). Peptide samples (c = 75 μM) were prepared in buffer: 10 mM disodium hydrogen phosphate, pH 7.4. For each sample, 10 CD spectra were measured between λ = 190 and 260 nm with continuous scan mode (10 mdeg sensitivity, 1.0 nm resolution, 1.0 nm bandwidth, 2 s integration time, 50 nm/min scan rate). Obtained spectra were averaged, then subtracted from a reference buffer spectrum and smoothed using a fast Fourier transform filter (FFT filter). The mean residue ellipticity (Θ) (deg·cm^2·dmol^−1·10^4) was calculated using Formula (2) and plotted against wavelength (λ) (nm). The ratio of secondary structure elements was calculated with CDNN using the PEPFIT set of reference spectra for secondary structure determination ([45],[46]):(2) where [Θ]m = mean molar ellipticity per peptide bond (degree·cm^2·dmol^−1·10^4), Θ = measured ellipticity (degree), d = optical path length (cm), cg = mass concentration (g·l^−1), MRW = mean residue weight, M = molar mass of the peptide (g·mol^−1) and N = number of peptide bonds.

Consider `CC(C)C[C@H](NC(=O)[C@H](CCC(=O)O)NC(=O)[C@H](CO)NC(=O)[C@H](CCCNC(=N)N)NC(=O)[C@H](CCCNC(=N)N)NC(=O)[C@H](CCC(N)=O)NC(=O)[C@H](CCC(=O)O)NC(=O)[C@H](CO)NC(=O)[C@@H]1CCCN1C(=O)[C@H](CO)NC(=O)[C@H](CCCCN)NC(=O)[C@H](Cc1c[nH]cn1)NC(=O)CNC(=O)[C@H](CCCNC(=N)N)NC(=O)[C@]1(C)CCCC=CCCC[C@](C)(NC(=O)[C@H](CCCCN)NC(=O)[C@H](Cc2c[nH]cn2)NC(=O)[C@H](CCCNC(=N)N)NC(=O)[C@H](CCCCN)NC(=O)[C@H](CCCNC(=N)N)NC(=O)[C@H](CCC(N)=O)NC(=O)[C@H](C)NC(=O)[C@H](CCC(N)=O)NC(=O)[C@H](CCCCN)NC(=O)[C@H](CCCCN)NC(=O)COCCOCCNC(=S)Nc2ccc3c(c2)C(=O)OC32c3ccc(O)cc3Oc3cc(O)ccc32)C(=O)N[C@@H](CC(N)=O)C(=O)N[C@@H](CCCNC(=N)N)C(=O)N[C@@H](CCCCN)C(=O)N1)C(=O)N[C@@H](Cc1c[nH]c2ccccc12)C(=O)N[C@@H](Cc1c[nH]cn1)C(=O)N[C@@H](C)C(=O)N[C@@H](CCCNC(=N)N)C(N)=O` [A3] ({FITC-AEEA}-KKQAQRKRHK[S5]NRK[S5]RGHKSPSEQRRSELWHAR-NH2; staple 11-15), for which the half-life t1/2 was found to be 3 min. For the same compound, the “Half-life (t1/2)” value on proteinase K is listed as 3.5 min. In data set [1], the Random coil was 52.8%, the β-Sheet is on record as 10.6%, the β-Turn was determined as 10.1% and the “Helix (α-helicity)” value amounted to 24.0%.

Take `CC(C)C[C@H](NC(=O)[C@H](CCC(=O)O)NC(=O)[C@H](CO)NC(=O)[C@H](CCCNC(=N)N)NC(=O)[C@H](CCCNC(=N)N)NC(=O)[C@H](CCC(N)=O)NC(=O)[C@H](CCC(=O)O)NC(=O)[C@H](CO)NC(=O)[C@@H]1CCCN1C(=O)[C@H](CO)NC(=O)[C@H](CCCCN)NC(=O)[C@H](Cc1c[nH]cn1)NC(=O)CNC(=O)[C@H](CCCNC(=N)N)NC(=O)[C@H](CCC(=O)O)NC(=O)[C@H](CCCCN)NC(=O)[C@H](CCCNC(=N)N)NC(=O)[C@H](CC(N)=O)NC(=O)[C@]1(C)CCCC=CCCCCCC[C@@](C)(NC(=O)[C@H](CCC(N)=O)NC(=O)[C@H](CCCCN)NC(=O)[C@H](CCCCN)NC(=O)COCCOCCNC(=S)Nc2ccc3c(c2)C(=O)OC32c3ccc(O)cc3Oc3cc(O)ccc32)C(=O)N[C@@H](CCC(N)=O)C(=O)N[C@@H](CCCNC(=N)N)C(=O)N[C@@H](CCCCN)C(=O)N[C@@H](CCCNC(=N)N)C(=O)N[C@@H](Cc2c[nH]cn2)C(=O)N[C@@H](CCCCN)C(=O)N1)C(=O)N[C@@H](Cc1c[nH]c2ccccc12)C(=O)N[C@@H](Cc1c[nH]cn1)C(=O)N[C@@H](C)C(=O)N[C@@H](CCCNC(=N)N)C(N)=O` [A1] ({FITC-AEEA}-KKQ[R8]QRKRHK[S5]NRKERGHKSPSEQRRSELWHAR-NH2; staple 4-11): the half-life t1/2 amounted to 3 min. For the same compound, the “Half-life (t1/2)” value at proteinase K came to 2.4 min. For the same compound, in data set [1], the Random coil is 51.4%, the β-Sheet amounted to 2.9%, the β-Turn was 9.6% and the “Helix (α-helicity)” value is 39.1%.
